Consider 15 compounds from patent US9062008B2, “Compounds useful as inhibitors of ATR kinase” (Vertex Pharmaceuticals Incorporated, priority 2010, dated 2015).

For the experiment, the target named is T1, full-length ATR (Homo sapiens, UniProt Q13535).
T1 construct: Assays were carried out at 25° C. in the presence of 5 nM full-length ATR
Kind of experiment: ATR Inhibition Assay (radioactive-phosphate incorporation). It counts as biochemical. The following applies: for % inhibition of ATR / inhibition at 8 µM: at 8 uM. As to the method:
Compounds were screened for their ability to inhibit ATR kinase using a radioactive-phosphate incorporation assay. Assays were carried out in a mixture of 50 mM Tris/HCl (pH 7.5), 10 mM MgCl2 and 1 mM DTT. Final substrate concentrations were 10 μM [γ-33P]ATP (3mCi 33P ATP/mmol ATP, Perkin Elmer) and 800 μM target peptide ([…] (SEQ. ID NO: 1)).
Assays were carried out at 25° C. in the presence of 5 nM full-length ATR. An assay stock buffer solution was prepared containing all of the reagents listed above, with the exception of ATP and the test compound of interest. 13.5 μL of the stock solution was placed in a 96 well plate followed by addition of 2 μL of DMSO stock containing serial dilutions of the test compound (typically starting from a final concentration of 15 μM with 3-fold serial dilutions) in duplicate (final DMSO concentration 7%). The plate was pre-incubated for 10 minutes at 25° C. and the reaction initiated by addition of 15 μl. [γ-33P]ATP (final concentration 10 μM).
The reaction was stopped after […] by the addition of 30 μL 0.1 M phosphoric acid containing 2 mM ATP. A multiscreen phosphocellulose filter 96-well plate (Millipore, Cat no. MAPHN0B50) was pretreated with 100 μL 0.2M phosphoric acid prior to the addition of 45 μL of the stopped assay mixture. The plate was washed with 5×200 μL 0.2 M phosphoric acid. After drying, 100 μL Optiphase ‘SuperMix’ liquid scintillation cocktail (Perkin Elmer) was added to the well prior to scintillation counting (1450 Microbeta Liquid Scintillation Counter, Wallac).
After removing mean background values for all of the data points, Ki(app) data were calculated from non-linear regression analysis of the initial rate data using the Prism software package (GraphPad Prism version 3.0cx for Macintosh, GraphPad Software, San Diego Calif., USA).

SMILES strings stand for the structures. Some results are limits rather than exact numbers.

T1 sequence (Q13535 whole entry): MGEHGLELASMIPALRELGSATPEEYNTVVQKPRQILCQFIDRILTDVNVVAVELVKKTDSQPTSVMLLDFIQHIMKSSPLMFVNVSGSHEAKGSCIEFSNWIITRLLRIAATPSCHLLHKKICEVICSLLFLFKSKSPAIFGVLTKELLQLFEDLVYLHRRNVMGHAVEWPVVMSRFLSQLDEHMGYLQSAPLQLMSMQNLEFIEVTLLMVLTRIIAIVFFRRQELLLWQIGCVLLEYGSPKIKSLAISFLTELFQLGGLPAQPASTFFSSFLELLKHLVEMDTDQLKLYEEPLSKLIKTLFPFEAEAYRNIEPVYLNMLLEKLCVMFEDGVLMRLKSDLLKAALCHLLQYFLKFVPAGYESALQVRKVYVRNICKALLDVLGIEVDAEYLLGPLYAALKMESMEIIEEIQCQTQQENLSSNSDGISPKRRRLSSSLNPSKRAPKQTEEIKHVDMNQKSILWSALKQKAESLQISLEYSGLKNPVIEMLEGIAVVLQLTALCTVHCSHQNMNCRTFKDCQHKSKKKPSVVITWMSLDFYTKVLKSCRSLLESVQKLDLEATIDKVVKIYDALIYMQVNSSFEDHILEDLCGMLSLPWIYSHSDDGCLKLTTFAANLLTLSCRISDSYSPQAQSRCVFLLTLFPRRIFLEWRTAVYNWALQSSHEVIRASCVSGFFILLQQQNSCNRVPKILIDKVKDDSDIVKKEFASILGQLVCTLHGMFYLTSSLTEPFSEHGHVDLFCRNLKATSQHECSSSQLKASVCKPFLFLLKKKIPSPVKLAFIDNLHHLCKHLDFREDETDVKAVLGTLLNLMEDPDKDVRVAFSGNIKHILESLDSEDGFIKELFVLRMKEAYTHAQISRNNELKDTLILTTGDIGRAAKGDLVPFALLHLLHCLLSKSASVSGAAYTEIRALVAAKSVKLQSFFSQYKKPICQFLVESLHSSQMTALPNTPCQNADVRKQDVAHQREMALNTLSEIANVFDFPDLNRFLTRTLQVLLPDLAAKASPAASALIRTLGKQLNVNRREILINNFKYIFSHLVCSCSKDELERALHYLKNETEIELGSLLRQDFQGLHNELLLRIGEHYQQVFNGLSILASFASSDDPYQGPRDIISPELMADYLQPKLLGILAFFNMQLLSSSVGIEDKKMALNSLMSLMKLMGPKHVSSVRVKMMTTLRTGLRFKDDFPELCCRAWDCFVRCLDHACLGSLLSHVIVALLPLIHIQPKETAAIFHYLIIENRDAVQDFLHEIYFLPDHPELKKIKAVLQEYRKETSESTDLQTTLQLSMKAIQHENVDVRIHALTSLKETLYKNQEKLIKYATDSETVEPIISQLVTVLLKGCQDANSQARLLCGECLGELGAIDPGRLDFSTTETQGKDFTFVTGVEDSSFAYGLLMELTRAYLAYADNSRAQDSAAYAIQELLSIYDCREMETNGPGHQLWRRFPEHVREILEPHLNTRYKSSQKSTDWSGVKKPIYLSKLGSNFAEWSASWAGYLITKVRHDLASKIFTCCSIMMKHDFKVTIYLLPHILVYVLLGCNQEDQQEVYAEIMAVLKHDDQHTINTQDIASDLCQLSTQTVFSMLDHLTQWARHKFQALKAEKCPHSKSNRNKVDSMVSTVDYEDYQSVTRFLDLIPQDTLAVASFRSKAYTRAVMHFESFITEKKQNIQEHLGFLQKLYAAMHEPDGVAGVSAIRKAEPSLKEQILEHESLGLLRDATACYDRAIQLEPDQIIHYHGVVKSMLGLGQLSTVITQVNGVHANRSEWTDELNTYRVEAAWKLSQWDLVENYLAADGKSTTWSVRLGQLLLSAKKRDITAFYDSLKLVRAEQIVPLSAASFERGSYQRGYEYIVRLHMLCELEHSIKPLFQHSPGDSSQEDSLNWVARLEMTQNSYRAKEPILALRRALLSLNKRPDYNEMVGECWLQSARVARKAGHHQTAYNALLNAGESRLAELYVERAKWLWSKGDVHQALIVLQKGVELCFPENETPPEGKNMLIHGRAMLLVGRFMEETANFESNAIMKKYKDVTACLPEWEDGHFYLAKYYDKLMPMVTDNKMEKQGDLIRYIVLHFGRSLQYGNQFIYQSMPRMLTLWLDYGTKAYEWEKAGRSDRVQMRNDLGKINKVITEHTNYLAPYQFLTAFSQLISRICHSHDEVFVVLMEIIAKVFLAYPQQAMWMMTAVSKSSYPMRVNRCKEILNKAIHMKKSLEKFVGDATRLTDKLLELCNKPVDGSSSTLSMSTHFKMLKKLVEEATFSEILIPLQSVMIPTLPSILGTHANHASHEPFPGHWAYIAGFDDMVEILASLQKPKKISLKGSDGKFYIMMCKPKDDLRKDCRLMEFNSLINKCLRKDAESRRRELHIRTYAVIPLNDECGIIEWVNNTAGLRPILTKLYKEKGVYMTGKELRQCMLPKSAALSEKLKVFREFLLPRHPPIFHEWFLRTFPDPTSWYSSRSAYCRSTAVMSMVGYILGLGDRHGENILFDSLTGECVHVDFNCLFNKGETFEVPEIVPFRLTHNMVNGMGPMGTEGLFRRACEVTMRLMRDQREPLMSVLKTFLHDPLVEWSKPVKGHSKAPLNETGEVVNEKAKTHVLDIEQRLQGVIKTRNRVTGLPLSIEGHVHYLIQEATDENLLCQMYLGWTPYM

As to `CC(C)S(=O)(=O)c1ccc(-c2cnc(N)c(N3CCN(c4ccccc4)CC3)n2)cc1` [Compound V-1, 5-(4-Isopropylsulfonylphenyl)-3-(4-phenylpiperazin-1-yl)pyrazin-2-amine], the “% inhibition of ATR” value is recorded as “no detectable inhibition”.
As to `CC(C)S(=O)(=O)c1ccc(-c2cnc(N)c(N3CCC(N)C3)n2)cc1` (centres unmarked) [Compound V-2, 3-(3-Aminopyrrolidin-1-yl)-5-(4-isopropylsulfonylphenyl)pyrazin-2-amine], the Ki (in general, the equilibrium dissociation constant of an inhibitor or competing ligand from its target) is over 1 µM and the inhibition (commonly how much of the control response was suppressed) at 8 µM was 10%.
For `CC(C)S(=O)(=O)c1ccc(-c2cnc(N)c(NCc3ccccc3)n2)cc1` [Compound V-3], in that order: over 1 µM and 10%.
For the compound `CC(C)S(=O)(=O)c1ccc(-c2cnc(N)c(NCC3=CC(O)CC=C3)n2)cc1` (centres unmarked) [Compound V-4], the Ki fell in the range of 0.1 to 1 µM.
As to `CC(C)S(=O)(=O)c1ccc(-c2cnc(N)c(NCCc3ccccc3)n2)cc1` [Compound V-5, 5-(4-Isopropylsulfonylphenyl)-N3-phenethyl-pyrazine-2,3-diamine], the inhibition at 8 µM was found to be 20%.
Regarding `CC(C)S(=O)(=O)c1ccc(-c2cnc(N)c(NC[C@H](O)c3ccccc3)n2)cc1` [Compound V-6, (1R)-2-[[3-amino-6-(4-isopropylsulfonylphenyl)pyrazin-2-yl]amino-]-1-phenyl-ethanol], the Ki is over 1 µM and the inhibition at 8 µM amounted to 10%.
The corresponding values for `CC(C)S(=O)(=O)c1ccc(-c2cnc(N)c(NC[C@@H](O)c3ccccc3)n2)cc1` [Compound V-7, (1S)-2-[[3-Amino-6-(4-isopropylsulfonylphenyl)pyrazin-2-yl]amino]-1-phenyl-ethanol] are over 1 µM and 30%.
With `CS(=O)(=O)c1ccc(-c2cnc(N)c(OCc3ccccc3)n2)cc1` [Compound V-9], the Ki is at most 0.1 µM.
As for `CS(=O)(=O)c1ccc(-c2cnc(N)c(/C=C/c3ccccc3)n2)cc1` [Compound V-10], the Ki is at most 0.1 µM.
Still for that read-out and setting: next, `CC(C)S(=O)(=O)c1ccc(-c2cnc(N)c(CCc3ccccc3)n2)cc1` [Compound V-11, 5-(4-Isopropylsulfonylphenyl)-3-phenethyl-pyrazin-2-amine]: at most 0.1 µM; `CC(C)S(=O)(=O)c1ccc(-c2cnc(N)c(C(=O)c3ccccc3)n2)cc1` [Compound V-12, [3-Amino-6-(4-isopropylsulfonylphenyl)pyrazin-2-yl]-phenyl-methanone]: at most 0.1 µM.
Same read-out and setting: in the case of `CC(C)S(=O)(=O)c1ccc(-c2cnc(N)c(NCCc3ccccc3)n2)cc1` [Compound V-13, 6-(4-(isopropylsulfonyl)phenyl)-N2-phenethylpyrazine-2,3-diamine] it was over 1 µM.
Consider `CS(=O)(=O)c1ccc(-c2cnc(N)c(NS(=O)(=O)c3ccccc3)n2)cc1` [Compound V-14, N-(3-amino-6-(4-(methylsulfonyl)phenyl)pyrazin-2-yl)benzenesulfonamide], for which the Ki is over 1 µM and the “% inhibition of ATR” value is listed as “no detectable inhibition”.
Consider `CC(C)n1cc(-c2cnc(N)c(OCc3ccccc3)n2)ccc1=O` [Compound V-15, 5-(5-amino-6-(benzyloxy)pyrazin-2-yl)-1-isopropylpyridin-2(1H)-one], for which the Ki fell in the range of 0.1 to 1 µM.
With `CC(C)S(=O)(=O)c1ccc(-c2cnc(N)c(/C(F)=C/c3ccccc3)n2)cc1` [Compound V-16, (Z)-3-(1-fluoro-2-phenylvinyl)-5-(4-(isopropylsulfonyl)phenyl)pyrazin-2-amine], the Ki is at most 0.1 µM.
